# Results taken from patent US4529731A, “Thiadiazolediamine derivative with histamine H-2 receptor inhibiting properties” (American Home Products Corporation, priority 1983, dated 1985).
# “Also recorded” adds a separate entry of the source.
# Assays:
# [1] = tested on: cold-restraint-induced gastric lesions; assay: development of cold-restraint-induced gastric lesions (ulcers); assay type: in vivo, male albino rats (Sprague-Dawley); details: p.o.; for ULCER SCORE (MEAN ± S.E.): number of ulcers in glandular stomach
# Experimental: Senay and R. J. Levine, Proc. Soc. Exp. Biol. Med., 124, 1221 (1967).
# More explicitly exemplified, the beneficial effects were evaluated as follow: Food was withheld from male albino rats (165-175 g, Sprague-Dawley, Canadian Breeding Laboratories) for 24 hours but water was freely available. The object compound was administered orally in one milliliter of a liquid vehicle to the animals 30 minutes before placing the animals into restrainers. Just prior to being restrained, each animal was given orally 50 mg of sodium taurocholate. The vehicle empoloyed was saline containing polysorbate 80 (oleate ester of sorbitol and its anhydrides copolymerized with ethylene oxide), one drop per five milliliters of saline. The restrainers were made of plexiglass and restricted the movement of the rat to a minimum. The restrainers were placed in a cold environment (4°-5° C.) for three hours. The animals were sacrificed by cervical dislocation, the stomachs removed and the number of ulcers in the glandular portion of the stomach determined.
# [2] = tested on: spontaneous gastric acid secretion in cannulated rats; assay: inhibiting spontaneous gastric acid secretion in cannulated rats; assay type: in vivo, Male albino Sprague Dawley rats; details: for time after which a significant response ceases: cimetidine 80 mg/kg, ranitidine 60 mg/kg
# Text: Male albino Sprague Dawley rats (200-300 g), purchased from Canadian Breeding Laboratories, were employed. Two gastric cannulas were implanted surgically in each rat as described by L. E. Borella and F. Herr, Gastroenterology, 61, 345 (1971). The rats were used two to three weeks after the operation at a time when their food intake and weight gain were similar to the food intake and weight gain of unoperated litter mates. […] Prior to each experiment, the plugs of the stomach cannulas of each rat were removed and the debris present in the stomach was flushed out with tepid saline passed through the cannulas. Thereafter, the lumen of the stomach was continuously perfused with saline introduced into the stomach through the forestomach cannula at a rate of 0.8-1.2 ml/min. […] On the basis of the hourly acid output, the rats were divided into equal groups so that the average acid output of all groups was similar. Saline (vehicle) or saline suspensions or solutions of the test compounds were administered intragastrically (i.g.) through the forestomach cannula, after having closed the antral cannula. During the one hour absorption period, the stomachs of the rats were not perfused. […] The average post-treatment hourly acid outputs of the test compound groups were compared to that of the saline group and the percent inhibition of acid output was calculated. Multiple statistical comparisons between groups was done using Dunnet's test, C. W. Dunnet, Journal of American Statistical Association, 50, 1096 (1955).
# histamine H-2 receptors = assay: inhibition of histamine H-2 receptors (statement in words)
# [3] = toxicity (statement in words)
# [4] = 1 hr after dosing, peroral, object compound 80, cimetidine 80, ranitidine 60 mg/kg
# [5] = 2 hr after dosing, peroral, object compound 80, cimetidine 80, ranitidine 60 mg/kg
# [6] = 3 hr after dosing, peroral, object compound 80, cimetidine 80, ranitidine 60 mg/kg
# [7] = 4 hr after dosing, peroral, object compound 80, cimetidine 80, ranitidine 60 mg/kg, cimetidine value = last statistically significant (*)
# [8] = 5 hr after dosing, peroral, object compound 80, cimetidine 80, ranitidine 60 mg/kg, ranitidine value = last statistically significant (*)
# [9] = 6 hr after dosing, peroral, object compound 80, ranitidine 60 mg/kg
# [10] = 7 hr after dosing, peroral, object compound 80, ranitidine 60 mg/kg
SMILES,"% INHIBITION OF ACID OUTPUT AT VARIOUS TIMES (HR) AFTER DOSING [2, 4] [%]","% INHIBITION OF ACID OUTPUT AT VARIOUS TIMES (HR) AFTER DOSING [2, 5] [%]","% INHIBITION OF ACID OUTPUT AT VARIOUS TIMES (HR) AFTER DOSING [2, 6] [%]","% INHIBITION OF ACID OUTPUT AT VARIOUS TIMES (HR) AFTER DOSING [2, 7] [%]","% INHIBITION OF ACID OUTPUT AT VARIOUS TIMES (HR) AFTER DOSING [2, 8] [%]","% INHIBITION OF ACID OUTPUT AT VARIOUS TIMES (HR) AFTER DOSING [2, 9] [%]","% INHIBITION OF ACID OUTPUT AT VARIOUS TIMES (HR) AFTER DOSING [2, 10] [%]",time after which a significant response ceases ([2]; peroral) [h],further results
"CN(C)CCNc1n[s+]([O-])nc1NCCCOc1cccc(CN2CCCCC2)c1 (stereo not shown) [Object compound, N-[2-(dimethylamino)ethyl]-N'-[3-[3-[(1-piperidinyl)methyl]phenoxy]propyl]-1,2,5-thiadiazole-3,4-diamine, 1-oxide]",88,95,96,95,94,85,61,–,"% INHIBITION (ulcer score) ([1]; 1 mg/kg): 44%; ULCER SCORE (MEAN ± S.E.) ([1]; 1 mg/kg): 10 ± 9; % INHIBITION (ulcer score) ([1]; 5 mg/kg, * p < 0.05): 89%; ULCER SCORE (MEAN ± S.E.) ([1]; 5 mg/kg): 2 ± 1; % INHIBITION (ulcer score) ([1]; 20 mg/kg, ** p < 0.01): 95%; ULCER SCORE (MEAN ± S.E.) ([1]; 20 mg/kg): 0.9 ± 0.5; % INHIBITION OF ACID OUTPUT AT VARIOUS TIMES (HR) AFTER DOSING ([2]; 8 hr after dosing, peroral, object compound 80 mg/kg): 52%; % INHIBITION OF ACID OUTPUT AT VARIOUS TIMES (HR) AFTER DOSING ([2]; 9 hr after dosing, peroral, object compound 80 mg/kg): 63%; % INHIBITION OF ACID OUTPUT AT VARIOUS TIMES (HR) AFTER DOSING ([2]; 10 hr after dosing, peroral, object compound 80 mg/kg): 64%; % INHIBITION OF ACID OUTPUT AT VARIOUS TIMES (HR) AFTER DOSING ([2]; 18 hr after dosing, peroral, object compound 80 mg/kg): 32%; % INHIBITION OF ACID OUTPUT AT VARIOUS TIMES (HR) AFTER DOSING ([2]; 19 hr after dosing, peroral, object compound 80 mg/kg, last statistically significant value (*)): 29%; % INHIBITION OF ACID OUTPUT AT VARIOUS TIMES (HR) AFTER DOSING ([2]; 20 hr after dosing, peroral, object compound 80 mg/kg): 7%; % INHIBITION OF 3 HOURS GASTRIC ACID OUTPUT ([2]; peroral dose 20 mg/kg, rat): 36%; % INHIBITION OF 3 HOURS GASTRIC ACID OUTPUT ([2]; peroral dose 40 mg/kg, rat): 65%; % INHIBITION OF 3 HOURS GASTRIC ACID OUTPUT ([2]; peroral dose 80 mg/kg, rat): 74%; duration of effect compared with cimetidine and ranitidine ([2]; peroral, object compound 80, cimetidine 80, ranitidine 60 mg/kg): longer acting effect; duration of action ([2]; rat, in vivo): long acting properties; inhibition of histamine H-2 receptors (histamine H-2 receptors): effective inhibitor of histamine H-2 receptors; also recorded: specifically inhibits H-2 histamine receptors; order of toxicity [3]: relatively low order of toxicity"
"CN/C(=N/CCSCc1nc[nH]c1C)NC#N [cimetidine, reference compound]",84,84,63,52,3,–,–,5,–
"CNC(=C[N+](=O)[O-])NCCSCc1ccc(CN(C)C)o1 [ranitidine, reference compound]",69,81,65,63,44,39,6,6,–
